Laboratory results reported in patent US20220170096A1, “INTERLEUKIN-4-INDUCED GENE 1 (IL4I1) AS A BIOMARKER AND USES THEREOF” (DEUTSCHES KREBSFORSCHUNGSZENTRUM STIFTUNG DES OEFFENTLICHEN …, priority 2019, published 2022).

Columns and labels:
AHR = AHR target gene expression (microarray, qRT-PCR) in glioblastoma cells treated with IL4I1 metabolites; type: cell-based, human; details: U-87MG cells; for induction of the AHR target gene TIPARP (mRNA): 24 h, KynA 50 μM; for modulation of AHR target genes / AHR activation signature genes: 40 μM for 24 h (microarray), TIPARP mRNA 24 h
Description: Array datasets—The affymetrix microarray chips “human gene 2.0 ST” were analyzed using the oligo package and annotated using NetAffx (14). Raw CEL files were RMA normalized and summarized. Differential gene expression was performed using the limma pipeline for microarrays (15).
For treatment of adherent cells with established and hypothetical AHR ligands, 4×10^5 cells per well were seeded in six well plates and incubated for 24 h prior to treatment. Non-adherent cells were seeded in 24 well plates at 5×10^5 cells in 1 mL and treated immediately. For verification of the generated AHR signature, cells were treated with the established AHR agonist Kyn (50 μM, SigmaAldrich, K8625) for 24 h. […] When using the AHR antagonist SR1 (1 μM, Merck Millipore, 182706), cells were treated for 24 h alone or in combination with AHR ligands.
Total RNA was harvested from cultured cells using the RNeasy Mini Kit (Qiagen, 80204) followed by cDNA synthesis using the High Capacity cDNA reverse transcriptase kit (Applied Biosystems, 4368813). A StepOne Plus real-time PCR system (Applied Biosystems) was used to perform real-time PCR of cDNA samples using SYBR Select Master mix (Thermo Scientific, 4309155). Data was processed and analysed using the StepOne Software v 2.3. Relative quantification of target genes was done against RNA18S as reference gene using the […] method.

GFP-tagged Ahr = target: T1, GFP-tagged Ahr (Mus musculus, UniProt P30561); experiment: AHR nuclear translocation assay in GFP-Ahr expressing tao BpRc1c cells; type: cell-based, murine; details: 25 μM, 4 h
T1 construct: expressed in transfected cells; host or cells: murine hepatoma tao BpRc1 cells (deficient of endogenous Ahr), retroviral transfection, tet-off system
T1 sequence (P30561 10-848): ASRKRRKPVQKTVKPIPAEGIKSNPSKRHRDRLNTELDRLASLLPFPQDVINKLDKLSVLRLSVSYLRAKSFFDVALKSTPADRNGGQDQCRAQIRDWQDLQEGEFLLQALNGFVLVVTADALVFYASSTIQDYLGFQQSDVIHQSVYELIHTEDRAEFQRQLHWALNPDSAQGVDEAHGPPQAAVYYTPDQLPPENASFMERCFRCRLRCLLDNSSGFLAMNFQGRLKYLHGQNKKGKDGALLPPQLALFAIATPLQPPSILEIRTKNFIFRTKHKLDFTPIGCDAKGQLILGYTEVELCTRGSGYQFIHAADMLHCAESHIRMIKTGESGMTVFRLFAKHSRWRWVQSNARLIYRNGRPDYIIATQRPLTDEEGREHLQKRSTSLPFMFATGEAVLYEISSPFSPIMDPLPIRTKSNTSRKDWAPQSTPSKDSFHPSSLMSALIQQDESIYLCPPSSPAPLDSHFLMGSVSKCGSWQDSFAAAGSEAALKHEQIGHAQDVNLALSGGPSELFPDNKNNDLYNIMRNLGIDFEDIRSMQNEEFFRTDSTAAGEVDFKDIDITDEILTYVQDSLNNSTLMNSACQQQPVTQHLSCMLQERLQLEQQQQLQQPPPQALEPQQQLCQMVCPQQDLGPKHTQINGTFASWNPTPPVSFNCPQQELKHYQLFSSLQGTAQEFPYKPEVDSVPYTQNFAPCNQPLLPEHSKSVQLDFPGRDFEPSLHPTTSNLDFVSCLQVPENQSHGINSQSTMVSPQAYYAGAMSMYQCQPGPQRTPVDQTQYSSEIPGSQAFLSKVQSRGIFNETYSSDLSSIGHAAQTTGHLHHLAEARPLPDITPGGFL
Description: Stably transfected tao BpRc1c cells, expressing a GFP-tagged Ahr under tetracycline control, were used to visualize nuclear translocation of Ahr.
For induction of GFP-Ahr expression in the transgenic tao BpRc1c cells, cells were taken off tetracycline 24 h before translocation assays. Assays were performed in black clear bottom 96-well plates (BD, #353219) with 7500 cells/well in 150 μl/well. Metabolites were added in 50 μL/well induction medium. Cells were exposed for 4h to 25 μM PP, HPP, and I3P respectively. Medium was discarded and cells fixed with pre-warmed 3.7% formaldehyde in PBS (10 min at RT). After fixation cells were washed with detergent buffer (DB, 0.01% Tween20 in PBS, Sigma Aldrich), followed by permeabilization with 0.1% Triton X-100 in PBS (Sigma Aldrich) for 15 min at RT. Cells were washed twice with DB and incubated with 0.4 ng/ml Hoechst 33342 (Sigma Aldrich) for 30 min at RT protected from light. After washing with DB and PBS cells were stored in PBS at 4° C. until translocation analysis. Translocation by KynA was monitored by live cell imaging after 3 h of exposure including the appropriate negative medium control. Translocation of Ahr by the different metabolites was monitored on a BD Pathway Imager 855.

[1] = Conversion of I3P to kynurenic acid in PBS with or without H2O2 (HPLC); type: physicochemical; details: 3.33 mg/mL I3P in PBS, 24 h, with or without 1 mM H2O2
Description: Black, lowest peak: 3.33 mg/mL I3P in phosphate buffered saline (PBS) incubated for 24 h. Grey peak: 3.33 mg/mL I3P incubated in PBS in the presence of 1 mM H2O2 for 24 h (n=2). c-e, TIPARP mRNA expression in U-87MG cells treated with IAA (c), ILA (d), I3CA (e) or vehicle for 24 h (n=3). f, TIPARP mRNA expression in shCtrl and shAHR U-87MG cells treated with 50 μM KynA or vehicle for 24 h (n=3). g, Representative images of GFP-Ahr expressing tao BpRc1c cells treated with either vehicle or 50 μM KynA for 1 h. n values represent independent experiments. Data are presented as mean±S.E.M and were analyzed by two-tailed paired student's t-test (a, b, h) or repeated measures ANOVA with Dunnett's multiple comparisons test (c, e-g). *P<0.05, **P<0.01, ***P<0.001, ****P<0.0001. n.s., not significant.

U-87MG cells = experiment: Metabolites in supernatants of U-87MG cells treated with I3P; type: cell-based, human; details: increasing concentrations of I3P, 24 h
Description: For treatment of adherent cells with established and hypothetical AHR ligands, 4×10^5 cells per well were seeded in six well plates and incubated for 24 h prior to treatment. Non-adherent cells were seeded in 24 well plates at 5×10^5 cells in 1 mL and treated immediately. For verification of the generated AHR signature, cells were treated with the established AHR agonist Kyn (50 μM, SigmaAldrich, K8625) for 24 h. In order to investigate the potential of direct and downstream IL4I1 metabolites to activate the AHR, cells were treated with […] When using the AHR antagonist SR1 (1 μM, Merck Millipore, 182706), cells were treated for 24 h alone or in combination with AHR ligands. […] Consumption of phenylalanine, tyrosine and Trp by IL4I1-expressing and non-expressing U-87MG and U-251MG cells was assessed by quantification of the amino acids in the cell culture supernatants after 120 h incubation. […] The derivatization product was separated at 42° C. on an Acquity BEH C18 column (Waters) using an Acquity H-class UPLC system (Waters) coupled to an Acquity fluorescence detector (FLR) (Waters). Samples were analyzed on the UPLC as described before by Yang et. al., 2015^21. […] Trp was detected by fluorescence (Acquity FLR detector, Waters, excitation: 254 nm, emission: 401 nm). Standards were used for quantification (Sigma). […] For targeted quantification of the metabolites, MRM mode was used. […]

nuclear translocation of the AHR (GFP-tagged Ahr) | IAA, I3CA and kynurenic acid in the cell supernatants after treatment (U-87MG cells) | SMILES | induction of the AHR target gene TIPARP (mRNA) (AHR) | formation of kynurenic acid from I3P [1] | modulation of AHR target genes / AHR activation signature genes (AHR)
– | – | O=Cc1c[nH]c2ccccc12 [I3CA, indole-3-carboxaldehyde] | induced TIPARP transcripts | – | –
– | – | O=C(O)C(O)Cc1c[nH]c2ccccc12 (stereo not shown) [I3L, indole-3-lactic acid] | did not observe relevant induction | – | –
observed only in response to I3P | dose-dependent increase | O=C(O)C(=O)Cc1c[nH]c2ccccc12 [I3P, indole-3-pyruvic acid] | – | formed spontaneously from I3P, which was enhanced in the presence of H2O2 | significant regulation
– | – | O=C(O)C(=O)Cc1ccccc1 [PP, phenylpyruvic acid] | – | – | did not elicit relevant modulation
